Like-named read-outs stand apart in the source and are kept apart here.

Data set [1] concerns in vitro BBB model (co-culture of bovine brain capillary endothelial cells and rat glial cells). Put plainly: In vitro BBB co-culture model, Cu,br/Cu,pl ratio. The settings on record: for In vitro Cu,br/Cu,pl Mean 1 h: 2 µM in luminal compartment, abluminal/luminal concentration at 1 h; for In vitro Cu,br/Cu,pl Mean steady-state: steady-state ratio computed from 1 h data with the blue-norna steady-state calculator. On the procedure: Figure 1 Schematic diagram of the experimental protocol. After 12 days of coculture in cell culture medium, both compartments of the in vitro BBB model consisting of a coculture of brain capillary endothlial cells and rat primary glial cells were filled with Hepes-buffered Ringer’s solution and the compounds dissolved at 2 µM were added in the luminal compartment (i.e donor). The presence of glial cells in the abluminal compartment was used to reproduce the non specific binding to brain tisssue within the brain prenchyma in vivo. After 1 hour, aliquots were taken from both compartments. In vitro Cu,br/Cu,pl at 1 h were calculated by dividing the concentration in the abluminal compartment (∼Cu,br) by the concentration in the luminal compartment (∼Cu,pl) at 1 h. The experimental data at 1 h were computed using the blue-norna steady-state calculator to generate the in vitro steady-state Cu,br/Cu,pl.
One hour after the addition of compounds dissolved at 2 µM in the luminal (i.e upper) compartment, aliquots were taken from both compartments previously filled with Hepes-buffered Ringer’s solution at the beginning of the experiment. […] The concentrations in both compartments of the in vitro assay after 1 h were computed using […] blue-norna.com to generate the in vitro steady-state Cu,br/Cu,pl.
The method of Dehouck et al. was used with minor modifications (Fig. 1). Bovine brain endothelial cells isolated from capillary fragments were cocultured with primary mixed glial cells from newborn Sprague–Dawley rats. The glial cells were isolated according to the method of Booher and Sensenbrenner and cultured for 3 weeks, plated on the bottom of cell culture clusters containing six wells each. The endothelial cells were seeded onto collagen-coated polycarbonate cell culture inserts (4.7 cm^2) (Corning Incorp. NY, USA), which were placed in the wells containing glial cells. The medium used for the coculture was Dulbecco’s modified Eagle’s medium supplemented with 10% calf serum, 10% horse serum, 2 mmol/L glutamine, 50 mg/L gentamicin and 1 µg/L basic fibroblast growth factor (Sigma). The medium was changed every second day. Experiments were usually initiated after 12 days of co-culture.
To monitor the integrity of the endothelial cell monolayer, the marker molecule [^14C] sucrose was added to the solution at a concentration of 0.05 µCi/ml. At the start of the transport experiments, buffered Ringer’s solution (pH = 7.4) was added to wells with glial cells. Inserts with brain endothelial cells were placed in these wells and drug solutions at 2 µM were added to the donor compartment. The plates were incubated for 1 h in a polymix shaker at 37°C with a low shaking velocity. Aliquots were taken from the donor compartment in the beginning and at the end of the experiments. The receiver compartments were sampled at the end of the experiments.
The amount of radiotracer in the abluminal compartment was measured in a liquid scintillation analyser (Packard Instrument Company, Meriden, USA). […] The concentrations of the test compound in all samples were analysed by MS/MS.
The mean free brain/plasma ratios were calculated from three individual experiments. One hour ratios were calculated by dividing the drug concentration in the receiver compartment by the free drug concentration in the donor compartment after 1 h. The experimental data at one hour (i.e concentration in both compartment at the beginning of the experiment and after 1 h) were computed using the blue-norna® steady-state calculator (www.blue-norna.com) to predict the in vivo steady-state Cu,br/Cu,pl ratios. For further details on this calculation method see file S1.
The in vivo steady-state Cu,br/Cu,pl were predicted from the in vitro experimental data collected after one hour according to the following equation: […]
Cdonor, t and Creceiver, t are the concentration of drug in the donor and receiver chambers at time t.

Data set [2] can be described thus: Fraction unbound brain (fu,br), brain slice method. On the procedure:
Rats (male Sprague-Dawley) were decapitated under isoflurane anesthesia and the brains were removed carefully and immersed in ice-cold oxygenated physiological buffer at pH7.4. A 6 mm coronal section was cut with a razor and mounted with cyanoacrylate glue onto the tray of the microslicer (DTK-Zero 1 Microslicer, Dosak) after which six to eight 300 µm coronal slices from striatal areas were prepared. […] The compounds were dissolved at 1 µM in the buffer and the solution was incubated with the slice for 5 h.
After 5 h, the brain slices were weighed and homogenized in 9 volumes (w/v) of ECF buffer with a sonicator (SONICS VCX 500 and VCX 130). The slice homogenates in ECF buffer were stored at −20°C prior to analysis. The concentrations of the test compound in the brain slice homogenate and in the ECF buffer was determined by LC-MS/MS.
The unbound volume of distribution Vu,brain, or free fraction fu,brain was calculated according to the following equations: [drawing 1] [drawing 2] where Cslice, CECF and V0 are amount of drug in the slice, the drug concentration in the ECF (representing the drug concentration in the brain ECF, i.e. the free concentration), and the water adhesion of the brain slice. V0 has been estimated using ^14C -inulin in a separate experiment in which brain slices were incubated for 1, 2, and 4 min. V0 was obtained from brain slice uptake – inulin time profile (apparent zero-time intercept).

Data set [3] in a line: Fraction unbound brain (fu,br), brain homogenate equilibrium dialysis. On the procedure:
The degree of brain binding was assessed by equilibrium dialysis. Brain homogenate (10%) was spiked with test compound at 1 µM in triplicate. […] The plate was then placed in a shaker/incubator to equilibrate for 18 hrs at 37°C. […] After the addition of 50 µl of buffer to the brain homogenate samples, 150 µl of acetonitrile was added to each sample. Finally, 50 µl of water was added to all buffer and brain homogenate samples. The plates were centrifuged and the supernatant analyzed by LC-MS/MS.

A short description of data set [4]: In vivo brain exposure (Cu,br/Cu,pl) under steady-state like conditions after intravenous administration. Particulars: rat, i.v. bolus plus infusion; for In vivo Cu,br/Cu,pl (homog.) Mean steady-state: Cbr/Cpl x fubr/fupl with fu,br from brain homogenate; for In vivo Cu,br/Cu,pl (slice) Mean steady-state: Cbr/Cpl x fubr/fupl with fu,br from brain slice. The protocol: Rat plasma was obtained from Sprague-Dawley rats in-house. Plasma from three individuals was pooled and mixed with up to 4 compounds with a concentration of 10 µM each (in 0.1% DMSO). A 48-well dialysis apparatus (AstraZeneca, Mölndal) was used to determine the plasma free fraction. The dialysis membrane (AstraZeneca, Mölndal) was conditioned in Milli/Q water before use. […] The samples were incubated on an orbital shaker (4 mm in diameter and 100 rpm) at 37 °C for 18 hrs. […] After plasma protein precipitation by the addition of 150 µl of acetonitrile to each plasma sample in order to precipitate plasma proteins. The plates were centrifuged and the supernatant analyzed by LC-MS/MS. The fu in plasma was calculated from the ratio of the MS-area of the compound in the buffer to the MS-area of the compound in the plasma.
The CNS exposure of 92 compounds (i.e 30 drugs and 62 proprietary compounds) was assessed under steady-state like conditions after intravenous administration. The time to approach steady-state (taken as at least 3.5 half-lives) was determined from prior studies of the pharmacokinetics of individual compounds after intravenous administration. The rats were put in restraint cages and cannulated via the tail vein. On the day of the experiment, the rats received a bolus injection followed by infusion. The infusion rate and infusion time were determined separately for each compound. The test formulation was administered using an infusion pump (CMA/100 or Univentor 400 microinjection pump).
Blood samples (400 µL) were collected by rapidly anaesthetizing the rats and keeping them under anesthesia with isofluran. Blood was collected either through heart puncture, from the tail vein or the orbital venous plexus and put into EDTA tubes, which were immediately placed on ice and centrifuged within 30 min at 4°C for 5 min at 2000 g to obtain plasma. The plasma was transferred by glass or plastic pipettes to 1.5 ml MTP system topaz vials and immediately frozen to −70°C or lower and stored at −20°C until assayed.
After blood collection, the whole brain was rapidly removed from the animal skull and weighed after which it was frozen and stored at −20°C. Before analysis with LC-MS/MS, the brain samples were sonicated (SONICS Vibracell VCX 130) in Ringer solution (2-fold the brain weight; e.g. 1 gram brain plus 2 mL Ringer).
The unbound brain exposure was assessed as Cu,br/Cu,pl, which is the free brain-free plasma concentration ratio. The Cu,br/Cu,pl ratios were obtained from total brain plasma ratios (Ctot,br/Ctot,pl) by using in vitro determined fu,br and fu,pl values according to: [drawing 4]
Brain concentrations were corrected for residual blood volume using 13 µl/g based on the vascular space of the marker [14C]-sucrose.

Regarding `CC(NC(C)(C)C)C(=O)c1cccc(Cl)c1` (stereo not drawn) [Buproprion], in data set [1], the “In vitro Cu,br/Cu,pl Mean 1 h” value is given as 0.24 and the “In vitro Cu,br/Cu,pl Mean steady-state” value was 0.51. Besides, the “fubrain (slice) Mean” value in data set [2] (rat brain slices 300 µm, 1 µM, 5 h incubation) worked out at 0.1600. For the same molecule, in data set [3] (brain homogenate (10%), 1 µM, equilibrium dialysis 18 hrs at 37°C), the “fubrain (homog.) Mean” value is listed as 0.1710. Moreover, in data set [4], the “In vivo Cu,br/Cu,pl (homog.) Mean steady-state” value turned out to be 1.07 and the “In vivo Cu,br/Cu,pl (slice) Mean steady-state” value is recorded as 1.00.
Regarding `Fc1ccc([C@@H]2CCNC[C@H]2COc2ccc3c(c2)OCO3)cc1` [Paroxetin], in data set [1], the “In vitro Cu,br/Cu,pl Mean 1 h” value came to 0.08 and the “In vitro Cu,br/Cu,pl Mean steady-state” value is reported as 0.79. Besides, in data set [2], the “fubrain (slice) Mean” value is 0.0024. In addition, in data set [3], the “fubrain (homog.) Mean” value was found to be 0.0039. Moreover, in data set [4], the “In vivo Cu,br/Cu,pl (homog.) Mean steady-state” value came to 0.86 and the “In vivo Cu,br/Cu,pl (slice) Mean steady-state” value is reported as 0.53.

Values taken from article PMC3849192, “A Simple Method for Assessing Free Brain/Free Plasma Ratios Using an In Vitro Model of the Blood Brain Barrier” (PLoS ONE, 2013).
